Measured values reported in patent US20250162973A1, “METHODS OF SYNTHESIS AND USES OF AGRIMOL COMPOUNDS” (Versitech Limited, priority 2022, published 2025).
Where two headings read alike, the source gives them in different places.

Columns and labels:
H460 cell line = assay: MTT cell viability assay; format: cell-based, human; details: MTT method
Description: (§1) SUNE1 (nasopharyngeal carcinoma), AGS (gastric adenocarcinoma), HeLa (cervix adenocarcinoma), HepG2 (hepatocellular carcinoma), U-87 MG (human glioblastoma cell), U2OS (osteosarcoma), MCF-7 (breast adenocarcinoma), MDA-MB-231 (breast adenocarcinoma), HCT116 (colorectal carcinoma), SW480 (colorectal adenocarcinoma), NCI-H460 (large cell lung carcinoma), NCI-H1650 (adenocarcinoma lung carcinoma), HCC827 (adenocarcinoma lung carcinoma), A549 (lung carcinoma), and CCD-19Lu (human lung fibroblast normal cell) were all obtained from American Type Culture Collection (ATCC, Manassas, VA, USA). Minimum Essential Media (MEM, Gibco®, ThermoFisher Scientific), Dulbecco's Modified Eagle Medium (DMEM, Gibco®, ThermoFisher Scientific), and RPMI-1640 Medium (Gibco®, ThermoFisher Scientific) supplemented with 10% Fetal Bovine Serum (Gibco®, ThermoFisher Scientific), and 100 U/mL penicillin-streptomycin (Gibco™, ThermoFisher Scientific) were used for cell culture. Cells were placed into an incubator with 5% CO2 that temperature was set at 37° C. For subculturing cells, 0.05% Trypsin-EDTA (Gibco®) was used for detaching and a subcultivation ratio of 1:5 was used.
(§2) The cell viability assay was performed by a typical MTT assay. Briefly, 5*10^3 cells were seeded in the 96-well flat bottom plate and allowed to attach overnight. After drug treatment with a serial dilution from 100 μM for 48 h, 10 μL of MTT solution (5 mg/ml prepared in PBS, filtered) was added into each well and incubate for 4 h at 37° C. The formed formazan was then dissolved with SDS solution (10% SDS in 10 mM HCl) and followed the determination of absorbance at 590 nm by a microplate reader. The change in cell viability was then calculated for each drug concentration, then normalized to control. Dose response curves from each assay were fit to a Boltzmann sigmoidal function (GraphPad Prism8, version8.0.0). The cytotoxicity of AGB and its derivatives was determined by the calculation of IC50 value (half maximal inhibitory concentration) from fitted curves, which was the concentration of drug induced 50% cell viability.

HeLa cell line = assay: MTT cell viability assay; format: cell-based, human; details: MTT method
Description: as §1, §2

A549 = assay: MTT cell viability assay; format: cell-based; details: Homo sapiens, MTT method, 48h, Table 6
Description: as §1, §2

AGS cell line = assay: MTT cell viability assay; format: cell-based, human; details: MTT method, 48 h
Description: as §1, §2

MDA-MB-231 cell line = assay: MTT cell viability assay; format: cell-based, human; details: MTT method, 48 h
Description: as §1, §2

[1] = test system: human cancer cell lines (MDA-MB-231, MCF-7, HepG2, HeLa, AGS, HCT116, SW480, SUNE-1, H460, HCC827, H1650, A549); assay: MTT cell viability assay, panel of human cancer cell lines; format: cell-based; details: four different cancer cell lines, 48-h treatment
Description: as §1, §2

[2] = test system: Golgi complex in NCI-H460 cells; assay: Golgi integrity, anti-GM130 immunostaining; format: cell-based, human
Excerpt: Based on the ProTargetMiner analysis results, the mitochondrial function and ER stress were studied. […] In cells, proteins were initially synthesized in ER and transport to Golgi apparatus for processing. When a drug blocked ER to Golgi trafficking, the Golgi apparatus would suffer from a dramatic redistribution and disruption. This blocking causes accumulation of unmatured proteins in the ER, thereby disrupting the structure of Golgi apparatus and inducing ER stress. The Golgi disrupting agent, brefeldin A (BFA) was used as a positive control drug. […] The effects of BFA and AGB on the integrity of the Golgi complex were assessed by immunostaining using an anti-GM130 antibody, one of Golgi markers.

[3] = Homo sapiens, NCI-H460, 48h, Table 6, read-out: IC50 H460
[4] = Homo sapiens, HeLa, 48h, Table 6, read-out: IC50 HeLa
[5] = 48 h, read-out: IC50 H460 cell line
[6] = 48 h, read-out: IC50 HeLa cell line

| Compound | IC50 (H460 cell line; [3]) | IC50 (HeLa cell line; [4]) | IC50 (A549) | also measured |
| --- | --- | --- | --- | --- |
| CCCC(=O)c1c(O)c(Cc2c(O)c(Cc3c(O)c(C)c(OC)c(C(=O)CCC)c3O)c(O)c(C(=O)C3CCCCC3)c2O)c(O)c(C)c1OC | 2.3 µM | 1.44 µM |  |  |
| CCCC(=O)c1c(O)c(Cc2c(O)c(Cc3c(O)c(C)c(OC)c(C(=O)CCC)c3O)c(O)c(C(=O)c3ccccc3)c2O)c(O)c(C)c1OC | 2.75 µM | 1.23 µM | 19.3 µM |  |
| CCCC(=O)c1c(O)c(Cc2c(O)c(C)c(O)c(Cc3c(O)c(C)c(OC)c(C(=O)CCC)c3O)c2O)c(O)c(C)c1OC | 3.78 µM |  |  |  |
| CCC(=O)c1c(O)c(Cc2c(O)c(Cc3c(O)c(C)c(OC)c(C(=O)CC)c3O)c(O)c(C(=O)CCC(O)OC)c2O)c(O)c(C)c1OC (stereo not drawn) | 4.67 µM | 3.56 µM | 41.9 µM |  |
| CCCC(=O)c1c(O)c(Cc2c(O)c(C(=O)OC)c(O)c(C(=O)C(C)C)c2O)c(O)c(C)c1OC | 1.14 µM |  |  |  |
| CCCC(=O)c1c(O)c(Cc2c(O)c(Cc3cc(OC)c(OC)c(OC)c3)c(O)c(C(=O)C(C)CC)c2O)c(O)c(C)c1OC (stereo not drawn) | 2.3 µM | 2.06 µM | 8.53 µM |  |
| CCCC(=O)c1c(O)c(Cc2c(O)c(C(=O)c3ccccc3)c(O)c(C(=O)c3ccccc3)c2O)c(O)c(C)c1OC | 3.13 µM | 3.24 µM | 28.4 µM |  |
| CCC(C)C(=O)c1c(O)c(Cc2ccccc2O)c(Cl)c(C(=O)OC)c1O (stereo not drawn) | 2.05 µM |  |  |  |
| CCC(C)C(=O)c1c(O)c(Cc2cc(C)ccc2O)c(O)c(C(=O)OC)c1O (stereo not drawn) | 2.99 µM | 3.96 µM | 20.5 µM |  |
| CCCC(=O)c1c(O)c(Cc2c(O)c(C)c(OC)c(C(=O)CCC)c2O)c(O)c(Cc2c(O)c(C)c(OC)c(C(=O)CCC)c2O)c1O [AGC, Agrimol C] |  |  |  | IC50 (AGS cell line): 8.01 µM; IC50 (H460 cell line; [5]): 1.76 µM; IC50 (HeLa cell line; [6]): 1.52 µM; IC50 (MDA-MB-231 cell line): 2.44 µM |
| CCCC(=O)c1c(O)cc(O)c(C)c1OC [AGS] |  |  |  | cytotoxicity compared with AGB [1]: significantly lower cytotoxicity than AGB; IC50 (AGS cell line; Homo sapiens, AGS): > 50 µM; IC50 (H460 cell line; Homo sapiens, NCI-H460, 48 h, read-out: IC50 H460 cell line): > 50 µM; IC50 (HeLa cell line; Homo sapiens, HeLa, 48 h, read-out: IC50 HeLa cell line): > 50 µM; IC50 (MDA-MB-231 cell line; Homo sapiens, MDA-MB-231): > 50 µM |
| C[C@H]1CCC/C=C/[C@@H]2C[C@H](O)C[C@H]2[C@H](O)/C=C/C(=O)O1 [BFA, brefeldin A] |  |  |  | GM130 distribution (Golgi integrity) [2]: redistribution of GM130 |
| Agrimol H [AGH] |  |  |  | IC50 (AGS cell line): 5.43 µM; IC50 (H460 cell line; [5]): 2.66 µM; IC50 (HeLa cell line; [6]): 1.55 µM; IC50 (MDA-MB-231 cell line): 2.84 µM |
| Agrimol L [AGL] |  |  |  | cytotoxicity compared with AGB [1]: significantly lower cytotoxicity than AGB; IC50 (AGS cell line): > 50 µM; IC50 (H460 cell line; [5]): > 50 µM; IC50 (HeLa cell line; [6]): 35.1 µM; IC50 (MDA-MB-231 cell line): > 50 µM |
